Data as given in US20130072473A1, “COMPOUNDS FOR TREATING PROTEIN FOLDING DISORDERS” (PROTEOSTASIS THERAPEUTICS, INC., priority 2011, published 2013).

Biological target: T1, ΔF508 expressing CFBE410- lung cells (Homo sapiens, UniProt P13569, DEL508-508)
T1 construct: host or cells: CFBE41o- lung cells
Assay: CFTR folding and trafficking assay (immunoblot of band B and C glycoforms)
Assay type: cell-based
Conditions: CFBE410- lung cells cultured in presence of compound versus DMSO; FIG. 1
Protocol: CFTR transport assays. Either ΔF508 expressing CFBE410- lung cells were cultured in the presence or absence of reagent in 12 well Sarstedt dishes, harvested, lysed and the processing of CFTR from the band B to the band C glycoform detected by SDS-PAGE and immunoblotting using either monoclonal 3G11 or M3A7.
Quantitation of CFTR glycoforms: Immunoblot exposures were selected to allow visualization of CFTR recovery under identical protein loads in same SDS-PAGE for all treatments. Given the dynamic range, quantitation of the band B and C glycoforms was made by analysis of band intensities that were in the linear range. The x-ray films were exposed for increasing time and the different exposures were quantified using a FluroChemSP (Alpha Inotech) densitometer/software package. Where band B and C were quantified from different exposures, an internal reference was used to normalize the signal intensity. This method is described in more detail in Hutt et al. (2010).^16 Reduced histone deacetylase 7 activity restores function to misfolded CFTR in cystic fibrosis, Nature Chemical Biology (2010), 6(1), 25-33, the contents of which are expressly incorporated by reference herein.

T1 sequence (P13569 with tags, fused parts or gaps DEL508-508): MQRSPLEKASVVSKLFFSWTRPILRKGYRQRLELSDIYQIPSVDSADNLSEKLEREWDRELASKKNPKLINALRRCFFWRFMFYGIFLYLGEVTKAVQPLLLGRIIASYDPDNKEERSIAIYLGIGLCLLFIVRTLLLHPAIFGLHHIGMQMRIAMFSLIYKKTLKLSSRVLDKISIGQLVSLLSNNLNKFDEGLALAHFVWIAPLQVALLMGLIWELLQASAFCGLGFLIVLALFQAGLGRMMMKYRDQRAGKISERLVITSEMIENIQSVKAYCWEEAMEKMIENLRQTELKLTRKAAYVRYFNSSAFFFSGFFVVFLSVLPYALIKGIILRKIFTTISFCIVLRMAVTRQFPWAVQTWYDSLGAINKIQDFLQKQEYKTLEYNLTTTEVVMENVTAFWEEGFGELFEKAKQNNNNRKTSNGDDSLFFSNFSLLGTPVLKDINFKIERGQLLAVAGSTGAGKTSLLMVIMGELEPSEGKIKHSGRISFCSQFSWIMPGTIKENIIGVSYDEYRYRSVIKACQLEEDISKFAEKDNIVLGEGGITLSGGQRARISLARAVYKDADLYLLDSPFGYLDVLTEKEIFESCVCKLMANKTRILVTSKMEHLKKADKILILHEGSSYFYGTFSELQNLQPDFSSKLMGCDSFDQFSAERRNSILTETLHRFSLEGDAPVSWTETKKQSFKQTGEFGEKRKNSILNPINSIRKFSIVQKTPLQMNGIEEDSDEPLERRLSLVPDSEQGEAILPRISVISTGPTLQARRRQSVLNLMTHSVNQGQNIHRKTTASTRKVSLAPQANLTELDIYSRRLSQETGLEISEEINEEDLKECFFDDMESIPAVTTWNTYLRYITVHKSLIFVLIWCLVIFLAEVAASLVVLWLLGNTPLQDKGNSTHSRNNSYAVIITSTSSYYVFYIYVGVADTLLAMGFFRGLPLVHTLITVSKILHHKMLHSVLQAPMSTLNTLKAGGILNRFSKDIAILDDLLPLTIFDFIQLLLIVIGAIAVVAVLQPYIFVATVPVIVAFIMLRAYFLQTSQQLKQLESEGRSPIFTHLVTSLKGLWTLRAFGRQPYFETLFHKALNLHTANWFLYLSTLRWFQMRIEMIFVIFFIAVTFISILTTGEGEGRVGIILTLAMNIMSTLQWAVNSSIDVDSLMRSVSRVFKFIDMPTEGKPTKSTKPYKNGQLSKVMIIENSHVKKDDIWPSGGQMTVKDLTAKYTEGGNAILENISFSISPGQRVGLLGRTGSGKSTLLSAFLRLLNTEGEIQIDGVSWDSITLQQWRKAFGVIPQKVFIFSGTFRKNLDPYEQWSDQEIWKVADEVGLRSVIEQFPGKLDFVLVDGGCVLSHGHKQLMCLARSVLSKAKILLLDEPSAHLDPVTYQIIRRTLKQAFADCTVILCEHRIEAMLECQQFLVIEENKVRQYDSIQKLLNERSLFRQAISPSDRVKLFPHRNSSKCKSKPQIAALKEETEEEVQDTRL

With CCN1CCc2c(sc(NC(C)=O)c2-c2nc3ccccc3s2)C1 [Example 2, N-(3-(benzo[d]thiazol-2-yl)-6-ethyl-4,5,6,7-tetrahydrothieno[2,3-c]pyridin-2-yl)acetamide] the “levels of CFTR band B and C by immunoblot” value was “enhanced levels of band B and C”.
